The values that follow come from patent US20080262073A1, “Pyrrolic Derivatives with Histone Deacetylase Inhibitory Activity” (priority 2005, published 2008).

One may read the melting point as the temperature, or range, at which the solid turns liquid.

`O=C(O)CCCCCNC(=O)c1[nH]c(-c2ccccc2)cc1-c1ccccc1` [Example 4, 6-(3,5-diphenyl-1H-pyrrole-2-carboxamide)hexanoic acid] registered a melting point of 228 to 229 °C.

`O=C(O)CCCCCNC(=O)c1[nH]c(-c2ccccc2)c([N+](=O)[O-])c1-c1ccccc1` [Example 5, 6-(4-nitro-3,5-diphenyl-1H-pyrrole-2-carboxamide)hexanoic acid] had a melting point of 153 to 154 °C.

On to `COc1ccc(-c2cc(-c3ccccc3)c(C(=O)NCCCCCC(=O)NO)[nH]2)cc1` [Example 6], for which the melting point lay in the range of 157 to 158 °C.

The compound `COc1ccc(-c2[nH]c(C(=O)NCCCCCC(=O)NO)c(-c3ccccc3)c2[N+](=O)[O-])cc1` [Example 7] registered a melting point of 126 to 127 °C.

`COc1ccc(-c2cc(-c3ccccc3)[nH]c2C(=O)NCCCCCC(=O)NO)cc1` [Example 8] registered a melting point of 142 °C.

The compound `CNNC(=O)NCCCCNC(=O)c1[nH]c(-c2ccc(OC)cc2)c([N+](=O)[O-])c1-c1cccs1` [Example 11, 1-(4-(5-(4-methoxyphenyl)-4-nitro-3-(thiophene-2-yl)-1H-pyrrole-2-carboxamide)butyl)-3-(2-methylamine)urea] registered a melting point of 185 to 187 °C.
